Key:
SLR24 cells = assay: Immunoblot of p53 targets, PBRM1-null SLR24 cells; type: cell-based; details: 50 μM etoposide
Procedure: The band intensity of indicated protein was measured with Bio-rad Image Lab 4.1, and the relative ratios were calculated over the signal intensity of Vinculin in the corresponding lanes. c–e. Nude mice xenograft analyses were performed with Ren-01 PBRM1 KO cells expressing GFP (left flank) or PBRM1 (right flank). Representative photographs of a mouse (c, top) and tumors (c, bottom). Tumors were excised and weighed, and data are presented as mean ± SEM (d). p-values were calculated using the paired two-tailed Student’s t-test. Tumors were stained for PBRM1 and p21 expression via IHC (e). Scale bar: 200 μm. f–h Nude mice xenograft analyses were performed with Ren-01 PBRM1 KO cells expressing wild-type PBRM1 (left flank) or the BD4* mutant PBRM1 (right flank). Tumors were excised and weighed, and data are presented as mean ± SEM (g). p-values were calculated using the paired two-tailed Student’s t-test. Representative photographs of a mouse (f, top) and tumors (f, bottom). Tumors were stained for PBRM1 and p21 expression via IHC analysis (h). Scale bar: 200 μm. Source data are provided as a Source Data file.
After washing with ice-cold PBS, cells were scraped on ice and centrifuged at 10,000 × g for 1 min at 4 °C. For immunoblot analysis, cell pellets were lysed in 1% SDS containing a protease inhibitor cocktail followed by sonication with a FB50 sonic dismembrator (Fisher Scientific) at 20% amplitude for 15 s twice. After centrifuging for 10 min at 14,000 × g, the supernatants were combined with 5X SDS loading buffer (5% mercaptoethanol, 0.05% Bromophenol blue, 30% glycerol, 10% SDS, 250 mM Tris-HCl (pH 6.8)), boiled for 5 min and used in SDS-PAGE. After standard western blot procedures, the blots were developed using the ImageQuant LAS 4000 (GE healthcare Life Sciences) or ChemiDoc MP Imaging System (Bio-rad) with HyGLO™ Chemiluminescent HRP Detection Reagent (E2500, Denville Scientific) or Immobilon™ Western Chemiluminescent HRP Substrate (WBKLS0500, Millipore).

HCT116 cells = assay: RT-qPCR of p53 targets, HCT116 parental and PBRM1 KO cells; type: cell-based; design: PUMA expression / PIDD expression: reference not given here; details: 50 μM, 24 h
Procedure: Total RNA was extracted from cells using the RNeasy Plus Mini Kit (74136, Qiagen), and the concentration was measured using the NanoDrop ND-1000 system (Thermo Scientific). Reverse transcription was performed using the First Strand cDNA Synthesis Kit (NP100042, Origen) with 0.5 µg total RNA. Real-time PCR was performed with Maxima SYBR Green qPCR Master Mix (K0253, Thermo Scientific) using the Roche LightCycler 480. The primers used for real-time PCR are listed as follows: q-GAPDH-F: […], q-GAPDH-R: […], q-CDKN1A-F: […], q-CDKN1A-R: […], q-MDM2-F: […], q-MDM2-R: […], q-BAX-F: […], q-BAX-R: […], q-PUMA-F: […], q-PUMA-R: […], q-NOXA-F: […], q-NOXA-R: […], q-GADD45a-F: […], q-GADD45a-R: […], q-APAF1-F: […], q-APAF1-R: […], q-BAI1-F: […], q-BAI1-R: […], q-BCL2A1-F: […], q-BCL2A1-R: g[…], q-BTG2-F: […], q-BTG2-R: […], q-CDC25c-F: […], q-CDC25c-R: […], q-FAS-F: […], q-FAS-R: […], q-PIDD-F: […], q-PIDD-R: […], q-RPRM-F: […], q-RPRM-R: […], q-TNFRSF10B-F: […] and q-TNFRSF10B-R: […]. GAPDH was used as an internal control. Data are shown as mean ± SEM for three independent experiments.
Supplementary Figure 4. PBRM1 is required for full p53 transcriptional activity.
a, b. HCT116 parental and PBRM1 KO cells (combination of eight clones) were treated with
(a). RNA was extracted and reverse transcribed from the indicated cells treated with 50 μM
etoposide. […]
p-values were calculated using the paired two -tailed Student’s t-test. c, d. […]

## COc1cc([C@@H]2c3cc4c(cc3[C@@H](O[C@@H]3O[C@@H]5CO[C@@H](C)O[C@H]5[C@H](O)[C@H]3O)[C@H]3COC(=O)[C@H]23)OCO4)cc(OC)c1O [Etoposide]
SLR24 cells; SLR24
  p21, PUMA and MDM2 expression after DNA damage, wild-type vs BD4* PBRM1 or GFP: significantly induced by wild-type but not BD4* mutant PBRM1 or GFP
SLR24 cells; SLR24 cells
  p21 or PUMA induction: barely
SLR24 cells; SLR24 expressing PBRM1-BD4*
  p21 and PUMA induction with PBRM1-BD4*: failed to induce their expression
SLR24 cells; SLR24 expressing PBRM1-wt, all time points
  p21 and PUMA induction with PBRM1-wt: strongly induced
HCT116 cells; HCT116-PBRM1-KOs, assay 1
  APAF1 expression: 3.8371
  BAX expression: 1.7963
  BCL2A1 expression: 19.7667
  BTG2 expression: 11.7942
  CDKN1A expression: 22.8639
  GADD45A expression: 3.9586
  MDM2 expression: 3.9724
  NOXA expression: 3.0525
  PIDD expression: 2.3295
  PUMA expression: 4.8793
  RPRM expression: 2.5491
HCT116 cells; HCT116-PBRM1-KOs, assay 2
  APAF1 expression: 1.6529
  BAX expression: 2.3457
  BCL2A1 expression: 6.9761
  BTG2 expression: 7.21
  CDKN1A expression: 14.0419
  GADD45A expression: 2.1289
  MDM2 expression: 5.9039
  NOXA expression: 3.6808
  PIDD expression: 1.4093
  PUMA expression: 7.235
  RPRM expression: 2.7797
HCT116 cells; HCT116-PBRM1-KOs, assay 3
  APAF1 expression: 1.6644
  BAX expression: 2.3134
  BCL2A1 expression: 9.2884
  BTG2 expression: 7.1602
  CDKN1A expression: 10.4953
  GADD45A expression: 3.1241
  MDM2 expression: 5.945
  NOXA expression: 3.6554
  PIDD expression: 1.4897
  PUMA expression: 3.2117
  RPRM expression: 1.3828
HCT116 cells; HCT116, assay 1
  APAF1 expression: 4.2871
  BAX expression: 2.7702
  BCL2A1 expression: 22.8639
  BTG2 expression: 12.7286
  CDKN1A expression: 28.6408
  GADD45A expression: 4.4076
  MDM2 expression: 4.6589
  NOXA expression: 3.0738
  PIDD expression: 3.0525
  PUMA expression: 4.4076
  RPRM expression: 3.6301
HCT116 cells; HCT116, assay 2
  APAF1 expression: 2.1372
  BAX expression: 2.6851
  BCL2A1 expression: 13.3173
  BTG2 expression: 8.1398
  CDKN1A expression: 17.6304
  GADD45A expression: 2.5584
  MDM2 expression: 5.7624
  NOXA expression: 3.8683
  PIDD expression: 2.0705
  PUMA expression: 5.3332
  RPRM expression: 2.9362
HCT116 cells; HCT116, assay 3
  APAF1 expression: 2.021
  BAX expression: 2.7226
  BCL2A1 expression: 11.9548
  BTG2 expression: 8.4269
  CDKN1A expression: 15.6707
  GADD45A expression: 3.0105
  MDM2 expression: 5.4264
  NOXA expression: 4.6765
  PIDD expression: 1.9453
  PUMA expression: 3.1939
  RPRM expression: 2.0097
